Experimental findings from patent US9868743B2, “Macrocyclic molecules as HCV entry inhibitors” (priority 2013, dated 2018) are described below.

Read-outs that look alike come from different tables or passages of the source.

This experiment concerns HCV pseudoparticles, genotype 1a HCV E1 and E2 envelope (H77C isolate). Description: HCV pseudoparticle infection assay (luciferase reporter, Huh7 cells). Format: cell-based, HCV genotype 1a (H77C). To be noted: Hepatitis C virus, Huh-7, 48 h.
The mark [1] stands for this setting: read-out: EC50 (nM) 1a (H77C), HCV pseudoparticle entry into Huh7 cells, luciferase 2 days after infection, average of duplicates.
[2] abbreviates: read-out: EC50 (nM) 1a (H77C), HCV pseudoparticle entry into Huh7 cells, luciferase 2 days after infection, class symbol.
Setting [3] is: HCV pseudoparticle entry into Huh7 cells, luciferase 2 days after infection, class symbol, read-out: EC50 (nM) 1a (H77C).

As usually defined, the EC50 is the concentration at which the effect is half-maximal.

Take `Cc1oc(=O)oc1CN1CCCOc2ccc(cc2Cl)CNc2nc(nc(OCC(F)(F)F)n2)Nc2ccc(cc2)C(=O)NCC(C)(C)C1` [Example 5001]: the EC50 runs as follows: under setting [1], 7.67 nM; under setting [2], 0.01 to 10 nM.

On to `CC1(C)CNC(=O)c2ccc(cc2)Nc2nc(nc(OCC(F)(F)F)n2)NCc2ccc(c(Cl)c2)OCCCN(C(=O)CN)C1` [Example 1009], for which the EC50 under setting [2] was in the range of 0.01 to 10 nM.

In the case of `CC1(C)CNC(=O)c2ccc(cc2)Nc2nc(nc(OCC(F)(F)F)n2)NCc2ccc(c(Cl)c2)OCCCN(C(=O)Cc2ccccc2)C1` [Example 1002], under setting [2], the EC50 lay in the range of 0.01 to 10 nM.

As for `CC1(C)CNC(=O)c2ccc(cc2)Nc2nc(nc(OCC(F)(F)F)n2)NCc2ccc(c(Cl)c2)OCCCN(S(=O)(=O)/C=C/c2ccccc2)C1` [Example 4001], the EC50 is, setting by setting: under setting [1], 0.555 nM; under setting [2], 0.01 to 10 nM.

Consider `CC(C)[C@@H]1CC[C@@H](C)C[C@H]1OC(=O)N1CCCOc2ccc(cc2Cl)CNc2nc(nc(OCC(F)(F)F)n2)Nc2ccc(cc2)C(=O)NCC(C)(C)C1` [Example 2005], for which the EC50 is 2.85 nM under setting [1] and 0.01 to 10 nM under setting [2].

With `CC1(C)CNC(=O)c2ccc(cc2)Nc2nc(nc(OCC(F)(F)F)n2)NCc2ccc(c(Cl)c2)OCCCN(C(=O)Oc2cccc3ccccc23)C1` [Example 2009], the concentration for a half-maximal effect (EC50) (HCV pseudoparticle entry into Huh7 cells, luciferase 2 days after infection, average of duplicates, read-out: EC50 (nM) 1a (H77C)) came to 1.26 nM and the EC50 under setting [3] was 0.01 to 10 nM.

Take `CC1(C)CNC(=O)c2ccc(cc2)Nc2nc(nc(OCC(F)(F)F)n2)NCc2ccc(c(Cl)c2)OCCCN(C(=O)CC(C)(C)n2cccc2)C1` [Example 1015]: the EC50 under setting [1] was 0.932 nM and the EC50 under setting [2] was 0.01 to 10 nM.

Consider `CC1(C)CNC(=O)c2ccc(cc2)Nc2nc(nc(OCC(F)(F)F)n2)NCc2ccc(c(Cl)c2)OCCCN(C(=O)Oc2ccc3ccccc3c2)C1` [Example 2010], for which the EC50 under setting [3] fell in the range of 0.01 to 10 nM.

On to `CC(C)[C@H]1CC[C@H](C)C[C@@H]1OC(=O)N1CCCOc2ccc(cc2Cl)CNc2nc(nc(OCC(F)(F)F)n2)Nc2ccc(cc2)C(=O)NCC(C)(C)C1` [Example 2004], for which the EC50 under setting [2] lay within 0.01 to 10 nM.

Consider `CC1(C)CNC(=O)c2ccc(cc2)Nc2nc(nc(OCC(F)(F)F)n2)NCc2ccc(c(Cl)c2)OCCCN(C(=O)CCC(=O)O)C1` [Example 1008], for which the EC50 is 23.9 nM under setting [1] and 10 to 1000 nM under setting [2].

For the compound `CC1(C)CNC(=O)c2ccc(cc2)Nc2nc(nc(OCC(F)(F)F)n2)NCc2ccc(c(Cl)c2)OCCCN(C(=O)CCc2nc3ccccc3s2)C1` [Example 1013], under setting [2], the EC50 lay in the range of 0.01 to 10 nM.

`CC1(C)CNC(=O)c2ccc(cc2)Nc2nc(nc(OCC(F)(F)F)n2)NCc2ccc(c(Cl)c2)OCCCN(C(=O)c2ncoc2-c2ccccc2)C1` [Example 1012]: the EC50 under setting [2] is 0.01 to 10 nM.

In the case of `COc1ccc(OC(=O)N2CCCOc3ccc(cc3Cl)CNc3nc(nc(OCC(F)(F)F)n3)Nc3ccc(cc3)C(=O)NCC(C)(C)C2)cc1` [Example 2007], the EC50 under setting [3] lay within 0.01 to 10 nM.

Take `CC1(C)CNC(=O)c2ccc(cc2)Nc2nc(nc(OCC(F)(F)F)n2)NCc2ccc(c(Cl)c2)OCCCN(C(=O)c2ccccc2)C1` [Example 1001]: the EC50 reads like this: under setting [1], 0.864 nM; under setting [2], 0.01 to 10 nM.

Consider `CC1(C)CNC(=O)c2ccc(cc2)Nc2nc(nc(OCC(F)(F)F)n2)NCc2ccc(c(Cl)c2)OCCCN(C(=O)CCc2ccccc2)C1` [Example 1003], for which, under setting [2], the EC50 was in the range of 0.01 to 10 nM.

As to `CC1(C)CNC(=O)c2ccc(cc2)Nc2nc(nc(OCC(F)(F)F)n2)NCc2ccc(c(Cl)c2)OCCCN(C(=O)Oc2ccccc2)C1` [Example 2006], the EC50 under setting [3] was in the range of 0.01 to 10 nM.

Turning to `CC1(C)CNC(=O)c2ccc(cc2)Nc2nc(nc(OCC(F)(F)F)n2)NCc2ccc(c(Cl)c2)OCCCN(C(=O)[C@@H]2C[C@H]2c2ccccc2)C1` [Example 1011], the EC50 under setting [2] was 0.01 to 10 nM.

As for `C=CCOC(=O)N1CCCOc2ccc(cc2Cl)CNc2nc(nc(OCC(F)(F)F)n2)Nc2ccc(cc2)C(=O)NCC(C)(C)C1` [Example 2003], the EC50 under setting [2] lay within 0.01 to 10 nM.

For the compound `CC1(C)CNC(=O)c2ccc(cc2)Nc2nc(nc(OCC(F)(F)F)n2)NCc2ccc(c(Cl)c2)OCCCN(C(=O)Oc2ccc([N+](=O)[O-])cc2)C1` [Example 2008], the EC50 under setting [3] is 0.01 to 10 nM.

Turning to `CC1(C)CNC(=O)c2ccc(cc2)Nc2nc(nc(OCC(F)(F)F)n2)NCc2ccc(c(Cl)c2)OCCCN(C(=O)CCCc2ccccc2)C1` [Example 1004], under setting [2], the EC50 is 0.01 to 10 nM.

Turning to `CC1(C)CNC(=O)c2ccc(cc2)Nc2nc(nc(OCC(F)(F)F)n2)NCc2ccc(c(Cl)c2)OCCCN(C(=O)CNC(=O)OC(C)(C)C)C1` [Example 1010], the EC50 under setting [2] fell in the range of 0.01 to 10 nM.

Turning to `CC1(C)CNC(=O)c2ccc(cc2)Nc2nc(nc(OCC(F)(F)F)n2)NCc2ccc(c(Cl)c2)OCCCN(C(=O)Cc2cccnc2)C1` [Example 1016], the EC50 under setting [2] was in the range of 0.01 to 10 nM.

For the compound `CC1(C)CNC(=O)c2ccc(cc2)Nc2nc(nc(OCc3cccnc3)n2)NCc2ccc(c(Cl)c2)OCCCN(C(=O)OCc2cccnc2)C1` [Example 2011], the concentration giving a half-maximal response (EC50) under setting [2] lay within 10 to 1000 nM.

Take `CC1(C)CNC(=O)c2ccc(cc2)Nc2nc(nc(OCC(F)(F)F)n2)NCc2ccc(c(Cl)c2)OCCCN(C(=O)OCCOCc2ccccc2)C1` [Example 2013]: the EC50 under setting [2] lay in the range of 0.01 to 10 nM.

`CC1(C)CNC(=O)c2ccc(cc2)Nc2nc(nc(OCC(F)(F)F)n2)NCc2ccc(c(Cl)c2)OCCCN(C(=O)/C=C/c2ccco2)C1` [Example 1007]: the EC50 under setting [2] fell in the range of 0.01 to 10 nM.

As to `Cc1oc(=O)oc1COC(=O)N1CCCOc2ccc(cc2Cl)CNc2nc(nc(OCC(F)(F)F)n2)Nc2ccc(cc2)C(=O)NCC(C)(C)C1` [Example 2014], the EC50 under setting [2] lay in the range of 0.01 to 10 nM.

Regarding `CC1(C)CNC(=O)c2ccc(cc2)Nc2nc(nc(OCC(F)(F)F)n2)NCc2ccc(c(Cl)c2)OCCCN(C(=O)CCc2ccncc2)C1` [Example 1014], under setting [2], the half-maximal effective concentration (EC50) is 0.01 to 10 nM.

In the case of `C=COC(=O)N1CCCOc2ccc(cc2Cl)CNc2nc(nc(OCC(F)(F)F)n2)Nc2ccc(cc2)C(=O)NCC(C)(C)C1` [Example 2002], under setting [2], the EC50 was 0.01 to 10 nM.

As to `Cc1oc(=O)oc1CN1CCCOc2ccc(cc2Cl)CN(Cc2oc(=O)oc2C)c2nc(nc(OCC(F)(F)F)n2)Nc2ccc(cc2)C(=O)NCC(C)(C)C1` [Example 5002], the half-maximal effective concentration (EC50) under setting [2] was in the range of 0.01 to 10 nM.

Take `CC1(C)CNC(=O)c2ccc(cc2)Nc2nc(nc(OCC(F)(F)F)n2)NCc2ccc(c(Cl)c2)OCCCN(C#N)C1` [Example 3001]: under setting [2], the EC50 is 0.01 to 10 nM.

With `C#CCOC(=O)N1CCCOc2ccc(cc2Cl)CNc2nc(nc(OCC(F)(F)F)n2)Nc2ccc(cc2)C(=O)NCC(C)(C)C1` [Example 2001], under setting [2], the EC50 fell in the range of 0.01 to 10 nM.

As for `CC1(C)CNC(=O)c2ccc(cc2)Nc2nc(nc(OCC(F)(F)F)n2)NCc2ccc(c(Cl)c2)OCCCN(C(=O)/C=C/c2ccccc2)C1` [Example 1005], the EC50 runs as follows: under setting [1], 1.51 nM; under setting [2], 0.01 to 10 nM.

`Cc1oc(=O)oc1COC(=O)N1CCCOc2ccc(cc2Cl)CNc2nc(nc(OCc3ccc(C(C)C)cc3)n2)Nc2ccc(cc2)C(=O)NCC(C)(C)C1` [Example 2016]: the EC50 is 0.109 nM under setting [1] and 0.01 to 10 nM under setting [2].

Turning to `Cc1oc(=O)oc1COC(=O)N1CCCOc2ccc(cc2Cl)CNc2nc(nc(OCc3ccc(C(F)(F)F)cc3)n2)Nc2ccc(cc2)C(=O)NCC(C)(C)C1` [Example 2015], the EC50 under setting [2] lay within 0.01 to 10 nM.

Regarding `CC1(C)CNC(=O)c2ccc(cc2)Nc2nc(nc(OCC(F)(F)F)n2)NCc2ccc(c(Cl)c2)OCCCN(C(=O)/C=C/c2ccoc2)C1` [Example 1006], the EC50 under setting [2] is 0.01 to 10 nM.

With `CC1(C)CNC(=O)c2ccc(cc2)Nc2nc(nc(OCC(F)(F)F)n2)NCc2ccc(c(Cl)c2)OCCCN(C(=O)CCC(=O)c2ccccc2)C1` [Example 1017], the 50% effective concentration (EC50) under setting [2] lay within 0.01 to 10 nM.
